Assay [1] concerns the target T1, HMG/CHA aldolase (Pseudomonas putida, UniProt A5W059).
T1 construct: gene Pput_1361; recombinant from pT7-7, expressed in E. coli; chelex-treated apo-enzyme reconstituted with MgCl2
The experiment in a line: aldol cleavage, LDH-coupled NADH oxidation at […] nm. The assay is classed as biochemical. Conditions: substrate inhibition constant, 1 mM MgCl2, 0.1 M HEPES pH 8.0, 25 °C, racemic substrate.

For assay [2], the target named is T1, HMG/CHA aldolase. The experiment in a line: decarboxylation, LDH-coupled NADH oxidation at […] nm. The assay is classed as biochemical. Conditions: substrate inhibition constant, 1 mM MgCl2, 0.1 M HEPES pH 8.0, 25 °C.

T1 sequence (A5W059 whole entry): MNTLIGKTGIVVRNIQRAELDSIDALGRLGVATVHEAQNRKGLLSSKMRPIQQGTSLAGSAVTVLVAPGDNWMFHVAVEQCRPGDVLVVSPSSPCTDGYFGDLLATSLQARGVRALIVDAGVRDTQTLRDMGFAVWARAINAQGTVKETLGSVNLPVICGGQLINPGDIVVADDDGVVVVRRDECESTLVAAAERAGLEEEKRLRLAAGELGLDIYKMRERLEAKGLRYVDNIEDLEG

With `CC(O)(CC(=O)C(=O)O)C(=O)O` (racemic) [HMG], the “Without Pi / Ksi” value at HMG/CHA aldolase [1] stood at 1.80 ± 0.091 mM.

For the compound `O=C(O)CC(=O)C(=O)O` [OAA], the “Without Pi / Ksi” value on HMG/CHA aldolase [2] is 0.360 ± 0.049 mM.

For the origin of these results see paper PMC5065237, “Investigation into the Mode of Phosphate Activation in the 4-Hydroxy-4-Methyl-2-Oxoglutarate/4-Carboxy-4-Hydroxy-2-Oxoadipate Aldolase from Pseudomonas putida F1” (PLoS ONE, 2016).
